For data set [1], the system named is HCT-116 cells. As to the kind of experiment: Cell survival (MTT assay), HCT-116. In kind it is cell-based, human. Particulars: for IC50: Homo sapiens, HCT-116, 48 h; for cytotoxic effect: 48 h. Here is the method: (§1) The survival of cells was determined by MTT (3-(4,5-Dimethylthiazol-2yl-)-2,5-diphenyl tetrazolium bromide) assay (ATCC, Manassas, VA, USA). In principle, the viable cell number is directly proportional to the purple formazan color of the reduced MTT dye, which can be quantitatively measured by spectrophotometry. Briefly, 1,500 cells were plated in quadruplets in 96-well flat-bottom tissue culture plates. After treatment with compounds for certain periods as described in respective figure legends, 10 μl of MTT reagent was added to each well and incubated at 37°C for 4 h to allow the formation of purple color crystals of formazan. In total, 100 μl of detergent solution was added to each well, and the reaction mixture was incubated in dark for 2–4 h at room temperature. The developed color density was then measured spectrophotometrically at 570 nm using the POLARstar Omega micro-plate reader (BMG Labtech, Inc., Cary, NC, USA).
On the technique in general: Formazan colour is commonly taken as a measure of viable cells.

For data set [2], the system named is HCoEpiC normal colonic epithelial cell line. As to the kind of experiment: Cell survival (MTT assay), HCoEpiC. The class given is cell-based. The conditions noted are these: Homo sapiens, drug alone, 48 h. The procedure:
as §1

Data set [3] deals with LoVo cells. Kind of data set: Cell survival (MTT assay), LoVo. In kind it is cell-based. The conditions noted are these: Homo sapiens, drug alone, 48 h. The procedure:
as §1

The test system of data set [4] is SW480 cells. As to the kind of experiment: Cell survival (MTT assay), SW480. The class given is cell-based. The conditions noted are these: Homo sapiens, drug alone, 48 h. Here is the method: as §1
Data set [5] relates to LS174T cells. Kind of data set: Cell survival (MTT assay), LS174T. In kind it is cell-based. Particulars: Homo sapiens, drug alone, 48 h. The procedure:
as §1

The test system of data set [6] is RKO cells. Kind of data set: Cell survival (MTT assay), RKO. In kind it is cell-based. Particulars: Homo sapiens, drug alone, 48 h. The procedure: as §1
Data set [7] relates to CA2 CRC stem cell line. Kind of data set: Spheroid (sphere) formation assay. The conditions noted are these: Homo sapiens; drug alone, seventh day. The class given is cell-based. Here is the method: Live CA2 cells (100) were seeded in 384-well ultra-low attachment plates. Next, day cells were treated with different concentrations of NSC49L and 5-FU either alone or in combination. Cells were incubated for 7 days and the number of spheroids were counted in control and treated groups under an Olympus inverted microscope with a 10× magnification.

Data set [8] relates to ALDH1, KLF4, Nanog, Oct4, Sox2, c-Myc mRNA in CA2 cells. Kind of data set: Stem cell marker and self-renewal gene mRNA levels by qRT-PCR. The class given is cell-based, human. The conditions noted are these: drug alone, 72 h, normalized with GAPDH. The procedure: Total RNA was isolated from control and treated cells with RNAzol reagent (Invitogen, Carlsbad, CA, USA). The expression of mRNA levels of stemness genes was determined by qRT-PCR using Bio-Rad CFX96 Real Time System C1000 Thermal Cycler. The primers used for amplification of mRNA levels of genes were from Celprogen, Inc., as shown here with their Gene Bank accession and catalog numbers: ALDHA1 (NM_000689, Cat. No. CepALDHA1-02), Klf4 (NM_004235, Cat No. CepKlf4-02), Nanog (NM_024865, Cat. No. CepNanog-02), Oct4 (NM_002701, Cat No. CepOct4-02), Sox2 (NM_003106, Cat. No. CepSox2-02), c-Myc (NM_002467, Cat. No. Cepc-Myc-02) and GAPDH (NM_002046, Cat. No. Cep-GAPDH-02).
On the technique in general: Quantitative PCR measures a nucleic acid by following its amplification.

In data set [9] the test system is Chk1 phosphorylation in HCT-116 cells. As to the kind of experiment: Western blot of total and phosphorylated Chk1, HCT-116. In kind it is cell-based, human. Particulars: 5-FU alone, 24 h. The procedure:
(§2) The levels of various proteins were determined by Western blot analysis with our previously described procedure. The antibodies for phospho-Chk1(Ser317), phospho-Chk1(Ser317), phospho-Chk1(Ser319), phospho-Chk1(Ser345), Chk1, and GAPDH were purchased from Cell Signaling Technology (Danvers, MA, USA).
A general note: Immunoblotting shows a protein as a band on a membrane.

The subject of data set [10] is human-derived CRC stem cell tumors. As to the kind of experiment: Patient-derived tumor xenograft (PDTX) of CRC stem cell tumors. In kind it is in vivo, female SCID mice. The conditions noted are these: 20 mg/kg body weight 5-FU every day, 30 days. Here is the method: With the pharmacokinetics analysis and MTD data in hand, we determined the efficacy of NSC49L and 5-FU alone and in combination for the growth of human-derived CRC stem cell tumors in vivo. CRC stem cells were isolated and characterized from the freshly resected human CRC tumor. One thousands of these CRC stem cells were injected subcutaneously into the right flank of the four 5-week old female SCID mice. After 20 days the first generation tumors (F0) of approximately 2,000 mm^3 in size were harvested. They were divided into four equal pieces and implanted under the skin of the female SCID mice for the growth of second generation tumors (F1) for testing the drug efficacy studies. We divided the F1 tumor bearing mice into four groups and treated them every day subcutaneously with drugs as follows: i) PBS control, (ii) 50 mg/kg body weight NSC49L, (iii) 20 mg/kg body weight 5-FU, and iv) 50 and 20 mg/kg body weight NSC49L and 5-FU, respectively, for 30 days. The treatment with drugs began after 10 days of tumor growth. The body weight and tumor volumes were recorded twice a weak. The experiment was terminated on the 32nd day.

Details of data set [11]: method as in PMID 20482808. Particulars: cited from earlier work.
Data set [12] has as its system HT29 cells. Kind of data set: Cell cycle profile by FACS. The class given is cell-based, human. Particulars: 2 mM HU 24 h. Here is the method:
For determining the cell cycle profile, cells were plated in 60 mm tissue culture dishes and grown until 60% confluence. […] After treatment, cells were harvested at different time intervals, washed with ice-cold PBS and processed for FACS analysis as described previously. The ranges for G0/G1, S, and G2/M phase arrested and sub-G1 apoptotic cells were established on the basis of the corresponding DNA content of the histograms. At minimum, 10,000 cells were counted from each sample.

Data set [13] has as its system Chk1 phosphorylation in HT29 cells. Kind of data set: Western blot of total and phosphorylated Chk1, HT29. In kind it is cell-based, human. The conditions noted are these: 2 mM HU 24 h. The procedure: as §2
The test system of data set [14] is HCT116(p53−/−) cells. As to the kind of experiment: MTT assay, IC50 of HU, HCT116(p53−/−). In kind it is cell-based, human. The conditions noted are these: 72 h, compared with HCT116(p53+/+) cells. The procedure: as §1
Data set [15] can be described thus: Solubility in water. The class given is physicochemical.
Data set [16] relates to human immunodeficiency virus (HIV) strain 1(RF). Also noted: method as in http://dtp.cancer.gov/dtpstandard/AIDSData/index.jsp. The conditions noted are these: ref http://dtp.cancer.gov/dtpstandard/AIDSData/index.jsp; cited from earlier work.

SMILES strings stand for the structures.

As a reminder, the IC50 is the midpoint of a concentration-inhibition curve. With `O=c1[nH]cc(F)c(=O)[nH]1` [5-FU, 5-fluorouracil], the IC50 is 11.5 ± 1.5 µM in data set [1] (drug alone, MTT, Table 1, four estimations); 513 ± 22 µM in data set [2]; 22 ± 0.9 µM in [3]; 113 ± 6 µM in data set [4]; 51 ± 3.8 µM in data set [5]; 68 ± 10.4 µM in data set [6]. Also, the IC50 in data set [7] worked out at 7.5 µM. For the same molecule, in data set [8], the “mRNA levels of ALDH1, KLF4, Nanog, Oct4, Sox2 and c-Myc” value is listed as “decreased”. Also, the “Chk1 phosphorylation (S317, S345, S296)” value in [9] is given as “increased phosphorylation at all three Chk1 sites”. The “Growth of CRC stem cell tumors” value in [10] is listed as “initially appreciable; however after the 21st day of treatment growth of the tumors resumed”. In data set [11], the “AUC (bioavailability)” value is 59710 ± 10580 ng·h/mL. Further, the t1/2 in [11] was 12.6 ± 3.6 min.

For the molecule `CC[N+](CC)(CC)CC=CCCl.[Cl-]` [CBTA, (4-Chloro-but-2-enyl)triethylammonium chloride, reference compound], the cytotoxic effect entry in data set [1] (MTT assay, Figure 1B) was “very little cytotoxic effect”.

On to `C1N2CN3CN1CN(C2)C3` [HMTA, hexamethylenetetramine, reference compound], for which the cytotoxic effect result in data set [1] (MTT assay, Figure 1B) was “very little cytotoxic effect”.

With `NC(=O)NO` [HU, hydroxyurea, reference compound], the “Cell cycle distribution G2/M” value in data set [12] came to 19.4%. Moreover, the “Cell cycle distribution S (S-phase arrest)” value is reported as 27.7% in data set [12] and 42.4% in data set [12] (HU withdrawn, 8 h drug-free medium). Further, the “Phosphorylation of Chk1 at S317, S345 and S296” value in data set [13] is reported as “increased”. Also, the “IC50 of HU” value in [14] is reported as “decreased”.

Turning to `ClCC=CC[N+]12CN3CN(CN(C3)C1)C2` [NSC30049, 1-(4-Chloro-2-butenyl)-1λ∼5∼,3,5,7-tetraazatricyclo [3.3.1.1∼3,7∼] decane], the Solubility in water entry in [15] is “readily soluble in water”. In addition, the “Activity against HIV” value in data set [16] was “inactive”.

Turning to `ClC/C=C\C[N+]12CN3CN(CN(C3)C1)C2` [c-NSC30049], it took 7.2 µM to reach half-maximal inhibition in data set [1] (MTT assay, Figure 1B, three experiments) (IC50).
